In patent US20260014203A1, “USE OF COMPOSITION INCLUDING MESENCHYMAL STEM CELLS FOR ALLEVIATING MYELOFIBROSIS” (MEDICAL AND PHARMACEUTICAL INDUSTRY TECHNOLOGY AND …, priority 2022, published 2026):

Experiments:
IDO gene in UCMSCs = assay: Priming of UCMSCs with IFN-γ in combination with a supplement, IDO gene mRNA by real-time PCR; assay type: cell-based, human; conditions: 250 U/mL of IFN-γ in combination with the supplement, 72 hours; compared with comparative group (IFN-γ only)
Description: In order to determine whether addition of a supplement, which is selected from one of vitamin, steroid, cytokine, double-stranded RNA, and histone deacetylase (HDAC) inhibitor, enhanced the effect of IFN-γ in the priming of UCMSCs, the following experiments were conducted.
In brief, UCMSCs culture as described in Item 2 of the General Experimental Materials were divided into 8 groups, namely, a normal control group (NCG), a comparative group (CG) and 6 experimental groups, i.e., experimental group 1 to experimental group 6 (EG1 to EG6), with the number of UCMSCs in each group being 5.8×10^5 cells. Next, the UCMSCs in each group were subjected to priming, in which the UCMSCs in the CG were treated with 250 U/mL of IFN-γ for 72 hours, the UCMSCs in a respective one of the EG1 to EG6 were treated with 250 U/mL of IFN-γ in combination with 1 μM of retinoic acid, 1 μg/mL of dexamethasone, 10 ng/mL of TNF-α, 25 μg/mL of polyinosinic acid-polycytidylic acid, 0.5 mM of valproic acid, and 1 μM of budesonide, respectively, for 72 hours, while the UCMSCs in the NCG were not subjected to any treatment and were left to stand for 72 hours.

[1] = system: indoleamine-pyrrole 2,3-dioxygenase (IDO)-expressing UCMSCs; assay: Priming of UCMSCs with IFN-γ, percentage of IDO-expressing UCMSCs by flow cytometry; assay type: cell-based, human
Description: UCMSCs culture as described in Item 2 of the General Experimental Materials were divided into 6 groups, namely, a control group (CG), and 5 experimental groups, i.e., experimental group 1 to 5 (EG1 to EG5), with the number of UCMSCs in each group being 5.8×10^5 cells. Next, the UCMSCs in the EG1 to EG5 were subjected to priming by treating with different concentrations of IFN-γ, i.e., 50, 100, 200, 250 and 500 U/mL of IFN-γ, respectively, for 72 hours, while the UCMSCs in the CG were not subjected to any treatment. For identification of IDO-expressing UCMSCs, the cells in each group were stained with phycoerythrin-conjugated IDO monoclonal antibody (Manufacturer: Thermo Fisher Scientific; Catalogue no.: 12-9477-42) while phycoerythrin-conjugated mouse IgG1 kappa isotype control (Manufacturer: Thermo Fisher Scientific; Catalogue no.: 12-4714-82) served as the control antibody, followed by subjecting the stained cells to flow cytometry conducted using CytoFLEX Flow Cytometer (Beckman Coulter), so as to determine the percentage of IDO-expressing UCMSCs in each group.
In brief, the UCMSCs culture as described in Item 2 of the General Experimental Materials were divided into 9 groups, namely, three control groups, i.e., control groups 1 to 3 (CG1 to CG3), and 6 experimental groups, i.e., experimental group 1-1 (EG1-1), experimental group 1-2 (EG1-2), experimental group 2-1 (EG2-1), experimental group 2-2 (EG2-2), experimental group 3-1 (EG3-1) and experimental group 3-2 (EG3-2), with the number of UCMSCs in each group being 5.8×10^5 cells. Next, the UCMSCs in the EG1-1, EG2-1, and EG3-1 were subjected to priming by treating with 250 U/mL of IFN-γ for 24 hours, 48 hours, and 72 hours, respectively, the UCMSCs in EG1-2, EG2-2, and EG3-2 were treated with 500 U/mL of IFN-γ for 24 hours, 48 hours, and 72 hours, respectively, while the UCMSCs in the CG1, CG2 and CG3 were not subjected to any treatment and were left to stand for 24 hours, 48 hours, and 72 hours, respectively. […]

| percentage of IDO-expressing UCMSCs ([1]; 50, 100, 200, 250 and 500 U/mL of IFN-γ, 72 hours, compared with control group, concentration dependent) | percentage of IDO-expressing UCMSCs ([1]; 250 or 500 U/mL of IFN-γ for 24, 48 or 72 hours, compared with the untreated control group of the same time) | percentage of IDO-expressing UCMSCs ([1]; 250 or 500 U/mL of IFN-γ, 72 hours compared with 48 hours and 24 hours) | Compound | relative mRNA expression level of IDO gene (IDO gene in UCMSCs) |
| --- | --- | --- | --- | --- |
|  |  |  | TNF-α | higher |
| higher | higher | higher | IFN-γ: cytokine used for priming of UCMSCs |  |
|  |  |  | polyinosinic acid-polycytidylic acid | higher |
|  |  |  | CCCC(CCC)C(=O)O [valproic acid] | higher |
